Results from patent publication US12565522B2, “Micropeptide HMMW and application thereof” (NANJING ANJI BIOTECHNOLOGY CO., LTD., priority 2019, dated 2026).
No end group written: not given here.

Experiments:
Assay type in all cases: cell-based, human
Details in all cases: 24 h
[1] = system: TE13 cells of esophageal squamous cell carcinoma; assay: Matrigel transwell invasion test
Description: (§1) Dilute 10 mg/mL Matrigel with culture medium at 1:3, spread it on membranes of transwell cells and dry it in the air at room temperature. Use trypsin to digest and collect SCC4 cells of head and neck cancer, SW579 cells of thyroid cancer, A549 cells of lung cancer, TE13 cells of esophageal squamous cell carcinoma, MGC803 cells of stomach cancer, MDA-MB-231 cells of breast cancer, UOK262 cells of kidney cancer, and A431 cells of skin cancer of human, which were cultured to the logarithmic phase, wash with PBS twice and re-suspend with a blank culture medium. Adjust cell concentration to 1×10^5 cells/mL. Inoculate the cells to transwell cells, 100 μL per well, and meanwhile add micropeptides HMMW I to IX at different doses to every cell. Add 0.6 mL of complete medium containing 10% FBS to the transwell cells to stimulate cell invasion, and culture in 5% CO2 at 37 DEG C. for 24 h. Discard the medium in the wells, fix with 90% alcohol at room temperature for 30 min, stain with 0.1% crystal violet at room temperature for 10 min, rinse with clear water, gently wipe off the non-invaded cells in the upper layer with a cotton swab, observe under a microscope and select four fields of view to take pictures and count. Calculate the invasion inhibition rate (IIR) of the cells according to the following formula:
(§2) [formula] where Ntest is the number of invaded cells in the test groups (the groups at a dose of 1, 4 or 16 μM in the table), Ncontrol is the number of invaded cells in the blank control groups (the groups at a dose of 0 μM in the table). The test was repeated independently three times. Mean±SD was calculated based on the test results. Statistical t test was done. Value P was used to express statistical difference. The statistical significance of the results is a method for estimating how true the results are (the totality can be represented), *P<0.05 means significant difference, and **P<0.01 means very significant difference.

[2] = system: A431 cells of skin cancer; assay: Matrigel transwell invasion test
Description: as §1, §2

[3] = system: SCC4 cells of head and neck cancer; assay: Matrigel transwell invasion test
Description: as §1, §2

[4] = system: MDA-MB-231 cells of breast cancer; assay: Matrigel transwell invasion test
Description: as §1, §2

[5] = system: UOK262 cells of kidney cancer; assay: Matrigel transwell invasion test
Description: as §1, §2

[6] = system: A549 cells of lung cancer; assay: Matrigel transwell invasion test
Description: as §1, §2

[7] = system: SW579 cells of thyroid cancer; assay: Matrigel transwell invasion test
Description: as §1, §2

[8] = system: MGC803 cells of stomach cancer; assay: Matrigel transwell invasion test
Description: as §1, §2

[9] = system: TE13 cells of esophageal squamous cell carcinoma; assay: transwell migration test
Description: (§3) Inoculate SCC4 cells of head and neck cancer, SW579 cells of thyroid cancer, A549 cells of lung cancer, TE13 cells of esophageal squamous cell carcinoma, MGC803 cells of stomach cancer, MDA-MB-231 cells of breast cancer, UOK262 cells of kidney cancer, and A431 cells of skin cancer of human to transwell cells, 100 μL per well, and meanwhile add micropeptides HMMW I to IX at different doses to every cell. Add 0.6 mL of complete medium containing 10% FBS to the transwell cells to stimulate cell migration, and culture in 5% CO2 at 37 DEG C. for 24 h. Discard the medium in the wells, fix with 90% alcohol at room temperature for 30 min, stain with 0.1% crystal violet at room temperature for 10 min, rinse with clear water, gently wipe off the non-migrated cells in the upper layer with a cotton swab, observe under a microscope and select four fields of view to take pictures and count. Calculate the migration inhibition rate (MIR) of the cells according to the following formula: […]
(§4) The test was repeated independently three times. Mean±SD was calculated based on the test results. Statistical t test was done. Here, “the test was repeated independently three times” means that every dose of any type of cells was tested repeatedly three times, and then the above formula was used to calculate the number of migrated cells (Mean±SD). Value P was used to express statistical difference. The statistical significance of the results is a method for estimating how true the results are (the totality can be represented), *P<0.05 means significant difference, and **P<0.01 means very significant difference.

[10] = system: A431 cells of skin cancer; assay: transwell migration test
Description: as §3, §4

[11] = system: SCC4 cells of head and neck cancer; assay: transwell migration test
Description: as §3, §4

[12] = system: MDA-MB-231 cells of breast cancer; assay: transwell migration test
Description: as §3, §4

[13] = system: UOK262 cells of kidney cancer; assay: transwell migration test
Description: as §3, §4

[14] = system: A549 cells of lung cancer; assay: transwell migration test
Description: as §3, §4

[15] = system: SW579 cells of thyroid cancer; assay: transwell migration test
Description: as §3, §4

[16] = system: MGC803 cells of stomach cancer; assay: transwell migration test
Description: as §3, §4

## MERAGVPGFSPRRSSVEAKMQSTSCSVRKSSTVTAWPAVVLLLSWGQRRGG-OH [HMMW-I]
[1]; dose 1 μM
  invasion inhibition rate: 20.43%
[1]; dose 4 μM
  invasion inhibition rate: 42.86%
[1]; dose 16 μM
  invasion inhibition rate: 66.51%
[2]; dose 1 μM
  invasion inhibition rate: 32.74%
[2]; dose 4 μM
  invasion inhibition rate: 51.22%
[2]; dose 16 μM
  invasion inhibition rate: 69.37%
[3]; dose 1 μM
  invasion inhibition rate: 20.75%
[3]; dose 4 μM
  invasion inhibition rate: 46.24%
[3]; dose 16 μM
  invasion inhibition rate: 74.84%
[4]; dose 1 μM
  invasion inhibition rate: 27.97%
[4]; dose 4 μM
  invasion inhibition rate: 48.95%
[4]; dose 16 μM
  invasion inhibition rate: 70.49%
[5]; dose 1 μM
  invasion inhibition rate: 33.80%
[5]; dose 4 μM
  invasion inhibition rate: 53.12%
[5]; dose 16 μM
  invasion inhibition rate: 66.67%
[6]; dose 1 μM
  invasion inhibition rate: 31.23%
[6]; dose 4 μM
  invasion inhibition rate: 51.32%
[6]; dose 16 μM
  invasion inhibition rate: 64.08%
[7]; dose 1 μM
  invasion inhibition rate: 19.63%
[7]; dose 4 μM
  invasion inhibition rate: 44.76%
[7]; dose 16 μM
  invasion inhibition rate: 64.89%
[8]; dose 1 μM
  invasion inhibition rate: 26.12%
[8]; dose 4 μM
  invasion inhibition rate: 50.08%
[8]; dose 16 μM
  invasion inhibition rate: 68.62%
[9]; dose 1 μM
  migration inhibition rate: 23.76%
[9]; dose 4 μM
  migration inhibition rate: 42.29%
[9]; dose 16 μM
  migration inhibition rate: 68.32%
[10]; dose 1 μM
  migration inhibition rate: 33.19%
[10]; dose 4 μM
  migration inhibition rate: 55.17%
[10]; dose 16 μM
  migration inhibition rate: 73.22%
[11]; dose 1 μM
  migration inhibition rate: 17.85%
[11]; dose 4 μM
  migration inhibition rate: 42.97%
[11]; dose 16 μM
  migration inhibition rate: 77.00%
[12]; dose 1 μM
  migration inhibition rate: 28.06%
[12]; dose 4 μM
  migration inhibition rate: 50.34%
[12]; dose 16 μM
  migration inhibition rate: 75.38%
[13]; dose 1 μM
  migration inhibition rate: 15.39%
[13]; dose 4 μM
  migration inhibition rate: 42.38%
[13]; dose 16 μM
  migration inhibition rate: 71.47%
[14]; dose 1 μM
  migration inhibition rate: 35.00%
[14]; dose 4 μM
  migration inhibition rate: 53.95%
[14]; dose 16 μM
  migration inhibition rate: 73.46%
[15]; dose 1 μM
  migration inhibition rate: 19.81%
[15]; dose 4 μM
  migration inhibition rate: 51.03%
[15]; dose 16 μM
  migration inhibition rate: 70.98%
[16]; dose 1 μM
  migration inhibition rate: 27.61%
[16]; dose 4 μM
  migration inhibition rate: 53.45%
[16]; dose 16 μM
  migration inhibition rate: 76.80%

## MGRAGVPGFSPRRSSVEAKMQSTSCSVRKSSTVTAWPAVVLLLSWGQRRGG-OH [HMMW-IX]
[1]; dose 1 μM
  invasion inhibition rate: 21.25%
[1]; dose 4 μM
  invasion inhibition rate: 40.39%
[1]; dose 16 μM
  invasion inhibition rate: 65.47%
[2]; dose 1 μM
  invasion inhibition rate: 34.83%
[2]; dose 4 μM
  invasion inhibition rate: 54.35%
[2]; dose 16 μM
  invasion inhibition rate: 74.16%
[3]; dose 1 μM
  invasion inhibition rate: 24.83%
[3]; dose 4 μM
  invasion inhibition rate: 48.82%
[3]; dose 16 μM
  invasion inhibition rate: 75.16%
[4]; dose 1 μM
  invasion inhibition rate: 27.83%
[4]; dose 4 μM
  invasion inhibition rate: 49.57%
[4]; dose 16 μM
  invasion inhibition rate: 75.43%
[5]; dose 1 μM
  invasion inhibition rate: 39.15%
[5]; dose 4 μM
  invasion inhibition rate: 59.28%
[5]; dose 16 μM
  invasion inhibition rate: 69.51%
[6]; dose 1 μM
  invasion inhibition rate: 30.15%
[6]; dose 4 μM
  invasion inhibition rate: 60.32%
[6]; dose 16 μM
  invasion inhibition rate: 70.35%
[7]; dose 1 μM
  invasion inhibition rate: 25.21%
[7]; dose 4 μM
  invasion inhibition rate: 48.60%
[7]; dose 16 μM
  invasion inhibition rate: 62.48%
[8]; dose 1 μM
  invasion inhibition rate: 26.42%
[8]; dose 4 μM
  invasion inhibition rate: 57.19%
[8]; dose 16 μM
  invasion inhibition rate: 68.35%
[9]; dose 1 μM
  migration inhibition rate: 21.76%
[9]; dose 4 μM
  migration inhibition rate: 40.29%
[9]; dose 16 μM
  migration inhibition rate: 65.32%
[10]; dose 1 μM
  migration inhibition rate: 33.19%
[10]; dose 4 μM
  migration inhibition rate: 55.17%
[10]; dose 16 μM
  migration inhibition rate: 73.22%
[11]; dose 1 μM
  migration inhibition rate: 18.81%
[11]; dose 4 μM
  migration inhibition rate: 43.97%
[11]; dose 16 μM
  migration inhibition rate: 74.00%
[12]; dose 1 μM
  migration inhibition rate: 26.06%
[12]; dose 4 μM
  migration inhibition rate: 52.34%
[12]; dose 16 μM
  migration inhibition rate: 73.38%
[13]; dose 1 μM
  migration inhibition rate: 17.39%
[13]; dose 4 μM
  migration inhibition rate: 43.38%
[13]; dose 16 μM
  migration inhibition rate: 70.47%
[14]; dose 1 μM
  migration inhibition rate: 36.00%
[14]; dose 4 μM
  migration inhibition rate: 52.95%
[14]; dose 16 μM
  migration inhibition rate: 71.46%
[15]; dose 1 μM
  migration inhibition rate: 17.81%
[15]; dose 4 μM
  migration inhibition rate: 50.03%
[15]; dose 16 μM
  migration inhibition rate: 71.98%
[16]; dose 1 μM
  migration inhibition rate: 25.61%
[16]; dose 4 μM
  migration inhibition rate: 51.45%
[16]; dose 16 μM
  migration inhibition rate: 74.80%
